# Values quoted from earlier work as cited in patent US20260209855A1, “COMPOSITIONS AND METHODS FOR DETECTION AND TREATMENT OF PROSTATE CANCER” (The Regents of the University of California, priority 2022, published 2026).
# B1: siltuximab (antibody, chains of the INN, looked up, V domains shown)
# VH: EVQLVESGGKLLKPGGSLKLSCAASGFTFSSFAMSWFRQSPEKRLEWVAEISSGGSYTYYPDTVTGRFTISRDNAKNTLYLEMSSLRSEDTAMYYCARGLWGYYALDYWGQGTSVTVSS
# VL: QIVLIQSPAIMSASPGEKVTMTCSASSSVSYMYWYQQKPGSSPRLLIYDTSNLASGVPVRFSGSGSGTSYSLTISRMEAEDAATYYCQQWSGYPYTFGGGTKLEIK
# notes: An IL-6 antagonist tested in clinical trials in PCa patients
# Legend:
# [1] = tested on: benign prostatic hyperplasia (BPH); settings: patients with BPH and AI, treatment prior to BPH diagnosis; result in words
# PCa = settings: result in words
# PCa patients = settings: clinical trials; result in words
molecule,measurement,setting,value
CN(Cc1cnc2nc(N)nc(N)c2n1)c1ccc(C(=O)N[C@@H](CCC(=O)O)C(=O)O)cc1 [methotrexate],Likelihood to develop BPH,[1],did not have this effect
bevacizumab,Clinical trial results in the treatment of PCa,PCa,conflicting results
B1,Clinical efficacy in PCa patients,PCa patients,no clinical efficacy
